The term melting point denotes the temperature, or range, at which the solid turns liquid.

Consider `COc1cc2c(Nc3ccc(Sc4nccn4C)c(Cl)c3)c(C#N)cnc2cc1F`, for which the melting point lay in the range of 295 to 297 °C.
To `C=Cc1ccc2cc(C3CCN(Cc4ccccc4)CC3)ccc2c1` belongs 112 to 114 °C.
`O=Cc1csc(Cc2ccccc2)n1` had a melting point of 78 °C.
In turn, `Cc1cccc(C(=O)NC(C)C)c1NC(=O)c1cnc(C(F)(F)F)nc1C` returned a melting point of 248 to 251 °C.
The compound `Cc1cc(Cl)nnc1-c1ccc(Br)cc1` displayed a melting point of 197 to 200 °C.
`CCC(CC)n1cc(C)nc(Nc2c(C)cc(C)cc2C)c1=O` displayed a melting point of 109 °C.
Consider `COC(=O)COc1cccc2c(CCSC(c3ccc(Cl)cc3)c3ccc(Cl)cc3)coc12`, for which the melting point fell in the range of 68 to 69 °C.
The compound `COC(=O)/C=C(C)/C=C/C1(c2cc3c(cc2C)C(C)(C)CCC3(C)C)CC=CS1` (configuration not stated) came in with a melting point of 152 to 153 °C.
To `CC12CC(F)C3C4CCC(=O)C=C4CCC3C1CCC2=O` (configuration not stated) belongs 173 to 174 °C.
In turn, `COc1cc(OC)cc(C(=CC#N)c2ccc(OC)c([N+](=O)[O-])c2)c1` displayed a melting point of 122 to 124 °C.
For `Cc1cc(=O)oc2cc(NC(=O)C3C(=O)c4ccccc4S(=O)(=O)N3C)ccc12` (configuration not stated), the melting point is above 285 °C.
In turn, `COC(=O)c1c(OCc2ccccc2)ccc2c1CCCC2` came in with a melting point of 59 to 61 °C.
Turning to `CCOC(=O)C(C)(NC(=O)Cc1ccc2ccccc2c1)C(=O)OCC`, the melting point was 148 to 150 °C.
Under `CN(C)C(Cl)=Nc1snc(C(C)(C)C)c1C#N` stands 94 to 100 °C.
`C=CCN1CC(C)N(C(c2cccc(O)c2)c2ccc(C(=O)N(CC)CC)s2)CC1C` (configuration not stated): the melting point lay in the range of 113 to 116 °C.
The compound `Cn1cnc(COc2nn3c(-c4ccccc4F)nnc3cc2-c2ccsc2)n1` gave a melting point of 216 to 218 °C.
Compound `Brc1ccc2[nH]cc(Cc3cccnc3)c2c1` showed a melting point of 122 °C.
Take `CN(C)C(=O)Nc1c(C(=O)c2cccc(Cl)c2)[nH]c2cc(Cl)ccc12`: the melting point lay within 214 to 221 °C.
`Clc1ccc(-c2cc3ccccc3s2)cc1` showed a melting point of 193 to 194 °C.
Compound `COc1cc(-c2nc(-n3cccn3)c3c(C)c(C#N)sc3n2)cc(OC)c1OC` returned a melting point of 209 to 214 °C.
The compound `CNCC(O)COc1cc(-c2ccc(C)cc2)nc2cc(C)ccc12` (racemic) had a melting point of 146 to 150 °C.
`CNC(=O)ON=C1SC(C)C(=O)NC1(C)C` (configuration not stated) registered a melting point of 190 to 191 °C.
Compound `COc1ccc(C(=O)Nc2cc(C)cc(C)c2)cc1N` gave a melting point of 155 to 162 °C.
To `C[C@H](NC(=O)Cc1ccccc1)C(=O)O` belongs 102 to 104 °C; to `COc1ccc(-c2cc(O)n3nccc3n2)cc1OC`, 268 to 270 °C; to `CCCCCCCCNc1ccc(-c2cc3ccccc3o2)cc1`, 87 to 90 °C.
Compound `O=C(O)COc1ccc(SCc2cc(-c3ccc(C(F)(F)F)cc3)on2)c2c1CCCC2` showed a melting point of 167 to 170 °C.
The compound `C#CCN(Cc1ccccc1)S(=O)(=O)c1ccc([N+](=O)[O-])cc1[N+](=O)[O-]` yielded a melting point of 91 to 92 °C.
Regarding `Cc1nc2ccc3c(c2s1)C(=O)CC3`, the melting point lay in the range of 163 to 165 °C.
Regarding `CCC1(CC)C(=O)c2cc(OCC(=O)O)c(C)c(C)c2C1=O`, the melting point is 134 to 136 °C.
Consider `O=C(CCO)N[C@H]1CC[C@H](CCN2CCC(c3cccc4c3CCO4)CC2)CC1`, for which the melting point was found to be 158 °C.
`COc1cc2c3ccc(OC)c(OC)c3n(S(=O)(=O)c3ccc([N+](=O)[O-])cc3)c2cc1OC` yielded a melting point of 188 to 189 °C.
Turning to `Nc1cnc(-c2ccc(F)cc2)n(CC(=O)NC(Cc2ccccc2)C(=O)c2nc3ccccc3o2)c1=O` (configuration not stated), the melting point was in the range of 233 to 236 °C.
To `COC(CO)(OC)C1(c2ccc(Cl)cc2)CCC1` belongs 73 to 74 °C; to `O=C(C=C(Cl)Cl)c1cc(F)c(Cl)cc1Cl`, 64 to 65 °C.
`Cn1nc(C#N)c(Nc2ccc(Br)cc2[N+](=O)[O-])n1`: the melting point lay in the range of 162 to 164 °C.
Regarding `O=[N+]([O-])c1ccc(CCN2CCN(C3CCc4ccccc4C3O)CC2)cc1` (configuration not stated), the melting point lay in the range of 155 to 159 °C.
Take `CC(=O)Nc1ccc(OC(F)(F)F)cc1-c1ccccc1`: the melting point came to 94 °C.
`O=C(NC(=O)c1ccc(F)cc1Cl)Nc1ccc(Cl)c(Cl)c1` displayed a melting point of 208 °C.
Take `COc1ccc(C2(O)OC(=O)C(c3ccc4nsnc4c3)=C2Cc2cc(OC)c(OC3CCCC3)c(OC)c2)cc1` (configuration not stated): the melting point fell in the range of 40 to 41 °C.
Under `Nc1ccc(-c2noc3cc(F)ccc23)cc1[N+](=O)[O-]` stands 239 °C; under `Cc1cc(-c2cc(C(F)(F)F)n3ncc(I)c3n2)ccc1C(F)(F)F`, 160 °C.
Turning to `CCCCCCCCCCOc1ccc(OCc2ccccc2)c(C(=O)OC)c1`, the melting point fell in the range of 32 to 34 °C.
In turn, `CC(=O)c1ccc(OCCCOc2cc(N)c(C)cc2Br)c(CCC(F)(F)F)c1O` registered a melting point of 124 to 126 °C.
In turn, `Cc1c(C(=O)Nc2ccc(N3CCC(N4CCOCC4)CC3)c(C(F)(F)F)c2)cnn1-c1ccc(Cl)cc1` displayed a melting point of 193 to 194 °C.
For `CCOC(=O)C(=C1SC(=S)N(CC(=O)O)C1=O)c1csc(NC(=S)NC(=O)c2ccccc2)n1`, the melting point fell in the range of 233 to 235 °C.
`CC(C)(C)OC(=O)Nc1cc2nc(-c3ccccc3)nn2cc1F` showed a melting point of 180 to 188 °C.
Take `O=C(Nc1ccccn1)c1cnc2c(c1O)CN(C(=O)OCc1ccccc1)CC2`: the melting point is 272 to 274 °C.
In turn, `Nc1cc2c(Nc3ccc(Cl)c(Cl)c3)ncnc2cn1` returned a melting point of 277 to 280 °C.
Regarding `CNC(=O)Nc1ccc2[nH]cc(CCN)c2c1`, the melting point was in the range of 188 to 190 °C.
To `C=CCOC(=O)CC(=O)CCN1C(=O)c2ccccc2C1=O` belongs 53 to 55 °C; to `COC(=O)c1ccccc1S(=O)(=O)NC(=O)Nc1nc(Cl)c(C)c(OC)n1`, 204 to 205 °C.
Take `CC(C)n1nc(-c2nc(-c3nc(-c4ccccc4)cs3)c(N)nc2-c2ccccc2)ccc1=O`: the melting point lay within 240 to 242 °C.
`COc1cc(OCc2ccccn2)ccc1/C=C/c1cc(/C=C/c2cc3ccccc3s2)n[nH]1` registered a melting point of 231 to 232 °C.
On to `CCCS(=O)(=O)c1cc(C(=O)CCC(=O)c2cc(OC)c(OC)c(OC)c2)cc(OC)c1OCc1ccccc1`, for which the melting point lay in the range of 148 to 150 °C.
Under `C#CCOc1cc(Cl)cc(Cl)c1OCC#C` stands 61 to 63 °C.
Regarding `CCOC(=O)C(c1ccc(CN2CCOCC2)cn1)c1cc(C#N)ccc1[N+](=O)[O-]` (configuration not stated), the melting point is 83 to 84 °C.
In turn, `COC1C=Cc2ccccc2C1(Nc1ccccc1C)C(N)=S` (configuration not stated) came in with a melting point of 162 °C.
Compound `CC(=O)OC1CSC(Oc2cccc(-c3ccncc3Cl)c2)C(OC(C)=O)C1OC(C)=O` (configuration not stated) yielded a melting point of 169 to 171 °C.
`Cc1nc(N2CCc3ccccc3CC2)c(C#N)c(=O)n1O` showed a melting point of 168 to 172 °C.
Turning to `O=P(O)(O)C(O)(CCC1CCCCN1)P(=O)(O)O` (configuration not stated), the melting point was in the range of 193 to 195 °C.
The compound `COC1=CCC2=C(CCC3C2CCC2(C)C3CCC2N(C)CCCN(C)C)C1` (configuration not stated) displayed a melting point of 78 to 80 °C.

The values above are taken from a melting point compilation (Tetko et al.; mined from patent text by program, amines drawn as free bases though some values may be those of a salt).
